In general, IC50 refers to the point on the concentration scale where inhibition reaches its midpoint. Lower therefore signals greater potency in that assay.

Assay [1] has as its target EGFR (human) (UniProt P00533).
Assay [2] concerns the target MAPK14 (human) (UniProt Q16539). Kind of assay: Inhibition of MAPK14 Kinase Activity.
Assay [3] shares this target. Kind of assay: Inhibition of LPS Induced TNF-alpha Production in THP-1 Cells. The conditions noted are these: thp1.
A further assay has as its target MAPK14 (UniProt Q16539).
Assay [4] concerns the target EGFR (UniProt P00533). The conditions noted are these: concentration not given here.
In assay [5] the target is MAPK14 (human) (UniProt Q16539). Kind of assay: Inhibition of LPS-stimulated TNF-alpha Production in Human Monocytic Cells. As to conditions: thp.1 monocytic.
Chain of MAPK14 (human) (Q16539 whole entry, looked up): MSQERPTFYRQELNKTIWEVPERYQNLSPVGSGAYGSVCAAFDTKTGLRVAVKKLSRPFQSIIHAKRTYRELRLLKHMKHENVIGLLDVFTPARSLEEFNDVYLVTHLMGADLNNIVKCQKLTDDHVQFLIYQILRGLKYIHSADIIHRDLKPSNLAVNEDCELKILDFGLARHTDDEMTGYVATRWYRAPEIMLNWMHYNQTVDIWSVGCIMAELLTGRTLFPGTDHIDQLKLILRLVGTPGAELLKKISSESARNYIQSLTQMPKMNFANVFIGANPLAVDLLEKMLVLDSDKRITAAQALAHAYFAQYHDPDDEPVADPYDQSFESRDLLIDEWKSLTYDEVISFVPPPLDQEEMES
The next assay deals with MAPK14 (murine). Kind of assay: Inhibition of MAPK14 Kinase Assay.
The target of assay [6] is EGFR (UniProt P00533). Kind of assay: EGFR Kinase Inhibition.
Chain of EGFR (P00533 whole entry, looked up): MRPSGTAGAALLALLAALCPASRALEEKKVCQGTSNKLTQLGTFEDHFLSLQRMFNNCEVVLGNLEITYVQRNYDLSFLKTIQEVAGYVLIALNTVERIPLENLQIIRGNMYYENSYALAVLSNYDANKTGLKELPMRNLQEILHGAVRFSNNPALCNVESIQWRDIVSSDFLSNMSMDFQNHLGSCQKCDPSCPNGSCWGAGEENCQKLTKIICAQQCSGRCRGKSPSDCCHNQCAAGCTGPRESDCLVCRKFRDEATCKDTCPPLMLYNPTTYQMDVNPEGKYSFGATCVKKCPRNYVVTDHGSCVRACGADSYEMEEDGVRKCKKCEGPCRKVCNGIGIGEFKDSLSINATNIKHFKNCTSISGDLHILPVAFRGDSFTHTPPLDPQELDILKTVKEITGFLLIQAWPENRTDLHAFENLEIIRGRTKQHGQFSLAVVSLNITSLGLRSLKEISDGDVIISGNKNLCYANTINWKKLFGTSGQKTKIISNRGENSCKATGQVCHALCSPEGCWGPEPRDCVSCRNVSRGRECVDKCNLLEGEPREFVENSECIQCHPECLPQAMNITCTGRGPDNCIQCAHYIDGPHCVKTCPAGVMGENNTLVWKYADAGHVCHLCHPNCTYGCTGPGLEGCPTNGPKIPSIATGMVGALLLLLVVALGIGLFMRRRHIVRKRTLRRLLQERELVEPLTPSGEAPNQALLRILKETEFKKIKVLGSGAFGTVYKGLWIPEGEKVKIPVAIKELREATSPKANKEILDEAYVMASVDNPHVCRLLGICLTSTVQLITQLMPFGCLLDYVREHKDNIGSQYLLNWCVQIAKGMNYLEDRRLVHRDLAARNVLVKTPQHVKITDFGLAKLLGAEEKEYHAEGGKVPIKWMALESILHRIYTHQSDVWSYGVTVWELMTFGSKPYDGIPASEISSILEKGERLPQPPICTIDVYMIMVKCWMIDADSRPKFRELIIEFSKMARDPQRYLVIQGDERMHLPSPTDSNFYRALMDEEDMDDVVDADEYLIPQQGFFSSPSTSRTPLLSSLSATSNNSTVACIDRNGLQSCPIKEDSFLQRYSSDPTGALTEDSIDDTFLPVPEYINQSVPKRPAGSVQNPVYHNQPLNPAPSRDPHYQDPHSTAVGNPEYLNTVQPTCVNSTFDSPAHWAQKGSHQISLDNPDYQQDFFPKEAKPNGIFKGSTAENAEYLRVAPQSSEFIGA
The target in another assay is ROCK2 (human) (UniProt O75116).
Assay [7] deals with EGFR (UniProt P00533).
In assay [8] the target is PIK3CB;PIK3CG;PIK3CD;PIK3CA (human) (UniProt P48736). Kind of assay: Inhibition of PIK3CA/PIK3CB/PIK3CD/PIK3CG Kinase Activity.
The next assay has as its target EGFR (murine) (UniProt P00533). The conditions noted are these: nih3t3.
Assay [9] addresses EGFR (human) (UniProt P00533). As to conditions: hn5.
In the next assay the target is PIK3CG (UniProt P48736). Kind of assay: Inhibition of PIK3CG Kinase Activity.

Chain of MAPK14 (Q16539 whole entry, looked up): as the sequence (Q16539 whole entry, looked up) above
Chain of EGFR (human) (P00533 whole entry, looked up): as the sequence (P00533 whole entry, looked up) above
Chain of EGFR (murine) (P00533 whole entry, looked up): as above

On to `COc1cc2ncnc(Nc3ccc(F)c(Cl)c3)c2cc1O[C@H]1CC[C@H](NS(=O)(=O)N(C)C)CC1`, for which, on EGFR (human) [1], the IC50 came out at 1 nM. That is a single-digit nanomolar value. Take `Cc1ccc(C(N)=O)cc1Nc1nc(N[C@H]2CCNC2)nc(N(C)C2CCCCC2)n1`: the 50% inhibitory concentration (IC50) is 250 nM at MAPK14 (human) [2] and 1300 nM at MAPK14 (human) [3]. Take `COc1ccc(Oc2cc(-c3c(-c4ccc(F)cc4)ncn3C3CCNCC3)ccn2)cc1`: the inhibition on MAPK14 was less than 50 µM. Consider `Cc1ccc(C(N)=O)cc1Nc1nc(NCC(C)C)nc(N[C@H]2CCNC2)n1`, for which the IC50 on MAPK14 (human) [3] is greater than 5000 nM. With `CC1CC1C(=O)Nc1sc2c(Cl)c(O)ccc2c1C(N)=O` (centres undefined), the inhibition at EGFR [4] is greater than 50%.

For the molecule `CC[C@H](C)Nc1nccc(-c2nn3c(c2-c2ccc(F)cc2)OCC3)n1`, on MAPK14 (human) [5], the IC50 stood at 80 nM. In other words, the double-digit nanomolar range.

Take `COc1ccc(C(=O)N2CCC(Cc3cccc(NC(=O)Nc4cc(C(C)(C)C)nn4-c4ccc(C)cc4)c3)CC2)c(OC)c1`: the IC50 against MAPK14 (murine) is 216 nM. `CC(C)[C@@H](NC1=C(CC2CCCC3CCCCC32)C(=O)C(O)=CC1=O)C(=O)O` (some centres undefined) registered an IC50 against EGFR [6] greater than 100000 nM. Turning to `CCOc1ccc2c(c1)CC(C(=O)Nc1ccc(-c3cn[nH]c3)cc1OCCN(C)C)NC2` (centres undefined), the 50% inhibitory concentration (IC50) on ROCK2 (human) is 850 nM.

As for `COc1cn2ncnc(Nc3ccc4c(cnn4Cc4cccc(F)c4)c3)c2c1CN1CCCNCC1`, the IC50 against EGFR [7] is 190 nM. Take `COc1c(Cl)ncnc1NCc1cc2cccc(Cl)c2nc1-c1ccccc1`: the IC50 in [8] amounted to 724 nM.

In turn, `COc1ccc(C(=O)N2CCC(Cc3ccccc3NC(=O)Nc3cc(C(C)(C)C)nn3-c3ccc(C)cc3)CC2)c(OC)c1` had a 50% inhibitory concentration (IC50) against MAPK14 (murine) of 500 nM. For the molecule `COc1ccc2nc(C)c(-c3ccccc3)nc2n1`, the IC50 in the assay with EGFR (murine) was greater than 100000 nM. Regarding `CS(=O)(=O)CCNCc1nc(-c2ccc3ncnc(Nc4ccc(OCc5ccccc5)c(Cl)c4)c3c2)cs1`, the IC50 against EGFR (human) [9] worked out at 230 nM.

In turn, `COc1cc2ncnc(Nc3ccc(F)c(Cl)c3)c2cc1O[C@H]1CCOC1` registered an IC50 at EGFR (human) [1] of 0.13 nM. This counts as sub-nanomolar. Consider `C[C@@H](O)[C@@H](NC1=CC(=O)C(N[C@@H](C(=O)O)[C@@H](C)O)=CC1=O)C(=O)O`, for which the IC50 on EGFR [6] was 44000 nM. This lies in the double-digit micromolar range. At EGFR (human) [9], `CS(=O)(=O)CCNCc1nc(-c2ccc3ncnc(Nc4ccc(F)c(Cl)c4)c3c2)cs1` registered a 50% inhibitory concentration (IC50) of 570 nM. The molecule `Oc1ccc(-c2cnc3ccc(NCc4ccccc4)nc3n2)cc1` gave an IC50 with EGFR (murine) greater than 50000 nM.

Turning to `Fc1cnc(Cl)nc1NCc1cc2cccc(Cl)c2nc1-c1ccccc1Cl`, the 50% inhibitory concentration (IC50) in assay [8] is 3230 nM. At MAPK14 (human) [5], `Fc1ccc(-c2c(-c3ccnc(Oc4ccccc4)n3)nn3c2OCCC3)cc1` returned an IC50 greater than 10000 nM. In turn, `NC(=O)c1c(NC(=O)C2CC2)sc2c1CCC(Br)(Br)C2=O` gave an inhibition at EGFR [4] greater than 50%. At EGFR (human) [1], `COc1cc2ncnc(Nc3ccc(F)c(Cl)c3)c2cc1O[C@H]1CC[C@H](NS(=O)(=O)N2CCOCC2)CC1` showed an IC50 of 0.4 nM. This counts as sub-nanomolar. With `CN1CCN(CCCCCNc2ncc3cc(-c4c(Cl)cccc4Cl)c(=O)n(C)c3n2)CC1`, the IC50 on EGFR [6] was 4500 nM.

The molecule `COc1ccc2c(c1)CN[C@@H](C(=O)Nc1ccc(-c3cn[nH]c3)cc1OCCN(C)C)C2` came in with an IC50 on ROCK2 (human) of 261 nM.

On to `Cc1ccc(C(N)=O)cc1Nc1nc(NCCc2ccc(F)cc2)nc(N[C@H]2CCNC2)n1`, for which the IC50 on MAPK14 (human) [3] was greater than 5000 nM. As for `COc1cccc2c1CNC(C(=O)Nc1ccc(-c3cn[nH]c3)cc1OCCN(C)C)C2` (centres undefined), the IC50 on ROCK2 (human) came to 334 nM. This lies in the sub-micromolar range. With `CCOCn1nnc(-c2ccncc2)c1-c1ccc(F)cc1`, the IC50 against MAPK14 (human) [5] came out at 490 nM.

In turn, `COc1cc2ncnc(Nc3ccc(F)c(Cl)c3)c2cc1O[C@H]1CC[C@H](NC(=O)N2CCOCC2)CC1` yielded a 50% inhibitory concentration (IC50) against EGFR (human) [1] of 0.3 nM.

Take `COC(=O)C1CCN(Cc2ccn3ncnc(Nc4ccc5c(cnn5Cc5cccc(F)c5)c4)c23)CC1`: the IC50 against EGFR [7] is greater than 1000 nM. Molecule `COC(=O)c1ccc(C)c(Nc2nc(N[C@H]3CCNC3)nc(N(C)CC(C)(C)C)n2)c1` yielded an IC50 at MAPK14 (human) [3] greater than 250 nM. In turn, `Fc1ccc(CNc2ccc3nc(-c4ccccc4)c(-c4ccccc4)nc3n2)cc1` returned an IC50 with EGFR (murine) greater than 100000 nM. As to `COc1ccc2c(c1)C[C@H](C(=O)Nc1ccc(-c3cn[nH]c3)cc1)NC2`, the IC50 against ROCK2 (human) turned out to be 134 nM. In assay [8], `Nc1ncc(F)c(NCc2cc3cccc(Cl)c3nc2-c2ccccc2Cl)n1` came in with an IC50 of 913 nM. Consider `O=C1CNCCN(Cc2ccn3ncnc(Nc4ccc5c(cnn5Cc5cccc(F)c5)c4)c23)C1`, for which the IC50 at EGFR [7] stood at 78 nM. For the molecule `CCC(C)N(C)c1nc(Nc2cc(C(N)=O)ccc2C)nc(N[C@H]2CCNC2)n1` (some centres undefined), the IC50 worked out at 28 nM against MAPK14 (human) [2] and 325 nM at MAPK14 (human) [3]. On MAPK14, `Fc1ccc(Oc2cc(-c3c(-c4ccc(F)cc4)ncn3C3CCNCC3)ccn2)cc1` displayed an inhibition of less than 50 µM.

For `COc1ccc(C(=O)N2CCC(Cc3ccc(NC(=O)Nc4cc(C(C)(C)C)nn4-c4ccc(C)cc4)cc3)CC2)c(OC)c1`, the IC50 at MAPK14 (murine) is 230 nM. With `COC[C@H](C)Nc1nccc(-c2nn3c(c2-c2ccc(F)cc2)OCC3)n1`, on MAPK14 (human) [5], the IC50 is 1700 nM. In turn, `COc1ccc(C(=O)N2C3CCC2CC(Cc2ccccc2NC(=O)Nc2cc(C(C)(C)C)nn2-c2ccc(C)cc2)C3)c(OC)c1` (centres undefined) gave an IC50 against MAPK14 (murine) of 6750 nM. At MAPK14, `Fc1ccc(-c2ncn(C3CCNCC3)c2-c2ccnc(Oc3ccccc3)c2)cc1` gave an inhibition of less than 50 µM. `C[C@H](Nc1nccc(-c2nn3c(c2-c2ccc(F)cc2)OCC3)n1)c1ccccc1`: the concentration for half-maximal inhibition (IC50) at MAPK14 (human) [5] is greater than 2000 nM. `CS(=O)(=O)CCNCc1nc(-c2ccc3ncnc(Nc4ccc5c(cnn5Cc5ccccc5)c4)c3c2)cs1` yielded an IC50 against EGFR (human) [9] of 110 nM. Take `CCN1Cc2ccc(OC)cc2C[C@@H]1C(=O)Nc1ccc(-c2cn[nH]c2)cc1OCCN(C)C`: the IC50 on ROCK2 (human) is 9 nM. At PIK3CG, `N#CN=C1NC(=O)/C(=C/c2ccc3nccnc3c2)S1` yielded an IC50 of less than 1000 nM.

`Cn1c(=O)c(-c2c(Cl)cccc2Cl)cc2cnc(NCCCCCC(=O)O)nc21` had an IC50 on EGFR [6] of 1000 nM. On PIK3CG, `O=C1NC(=NCc2ccccc2)S/C1=C\c1ccc2c(c1)OCO2` came in with an IC50 of less than 1500 nM. Consider `c1ccc(Nc2ccc3ncc(-c4ccccc4)nc3n2)cc1`, for which the IC50 with EGFR (murine) was greater than 50000 nM. Take `NC(=O)c1c(NC(=O)C2CC2)sc2c(O)c(Br)ccc12`: at EGFR [4], the inhibition was greater than 50%. In the case of `CC.COc1cc2ncnc(Nc3ccc(F)c(Cl)c3)c2cc1OC1CCN(S(=O)(=O)N2CCOCC2)CC1`, the half-maximal inhibitory concentration (IC50) against EGFR (human) [1] is 0.1 nM. This counts as sub-nanomolar.

On to `COc1ccc2nc(-c3ccccc3)c(-c3ccccc3)nc2n1`, for which the concentration for half-maximal inhibition (IC50) with EGFR (murine) is greater than 100000 nM. With `CS(=O)(=O)CCNCc1nc(-c2ccc3ncnc(Nc4ccc(OCc5ccccc5)cc4)c3c2)cs1`, the concentration for half-maximal inhibition (IC50) on EGFR (human) [9] is 1600 nM. Molecule `COc1ccc(Nc2ncc3cc(-c4c(Cl)cccc4Cl)c(=O)n(C)c3n2)cn1` yielded an IC50 against EGFR [6] of 1300 nM.

With `Cc1nc2ccc(NCc3ccc(F)cc3)nc2nc1-c1ccccc1`, the IC50 in the assay with EGFR (murine) is greater than 100000 nM. `Fc1ccc(-c2ncn(C3CCNCC3)c2-c2ccnc(Sc3ccccc3)c2)cc1`: the inhibition against MAPK14 is less than 50 µM. At EGFR [4], `NN=C1CCc2c(sc(NC(=O)C3CC3)c2C(N)=O)C1` came in with an inhibition greater than 50%. As for `Cc1ccn2ncnc(Nc3ccc4c(cnn4Cc4cccc(F)c4)c3)c12`, on EGFR [7], the IC50 was 81 nM.

As for `Cc1cn2ncnc(Nc3ccc4c(cnn4Cc4cccc(F)c4)c3)c2c1CN1CCCNCC1`, the IC50 at EGFR [7] worked out at 130 nM. This IC50 is about 1.6-fold higher than that of the molecule before.

Turning to `COc1ccc(C(=O)N2C3CCC2CC(Cc2ccc(NC(=O)Nc4cc(C(C)(C)C)nn4-c4ccc(C)cc4)cc2)C3)c(OC)c1` (centres undefined), the IC50 against MAPK14 (murine) was determined as 1170 nM. `Fc1ccc(Oc2nccc(-c3c(-c4ccc(F)cc4)ncn3CCCN3CCOCC3)n2)cc1` showed an inhibition at MAPK14 of less than 50 µM. As for `Cn1nnnc1Sc1cc(-c2c(-c3ccc(F)cc3)ncn2C2CCNCC2)ccn1`, the inhibition against MAPK14 was less than 50 µM. In turn, `NC(=O)c1c(NC(=O)Nc2ccc(F)cc2)sc2c1CCC(=O)C2` returned an inhibition on EGFR [4] greater than 50%.

As for `NC(Cc1cccc(Cl)c1)C(=O)Nc1ccc(-c2cn[nH]c2)cc1` (centres undefined), the IC50 against ROCK2 (human) amounted to 2 nM.

The values are drawn from the Kinase Knowledgebase extract (Sharma et al. 2016).
